Assay results published in US20100173873A1, “TREATMENT OF METASTASIZED TUMORS” (Novartis Vaccines and Diagnostics, Inc., priority 2005, published 2010).

Tested on: PC-3M-luc tumor cells
Experiment: PC-3M-luc bone metastatic prostate model
Format: in vivo, nude mice
Conditions: 15 mg/kg i.p. 3 times per week
Method: Cell lines. Metastatic human prostate cell line PC-3M expressing null p53, del PTEN, VEGFR, FGFR and stably transfected with a construct of luciferase were obtained under a licensing agreement with Xenogen.
In vivo efficacy studies. […]. Animals received sterile rodent chow and water ad libitum and were housed in sterile filter-top cages with 12 hour light/dark cycles. All experiments were conducted under the guidelines of the Association for Assessment and Accreditation of Laboratory Animal Care International. PC-3M luc bone metastatic model. Human prostate cancer cell line PC-3M-luc cells (1.5×10^6 cells) stably transfected with a construct of luciferase were injected via intracardiac injections. Bioluminescent imaging (Xenogen's IVIS® imaging system) was used to non-invasively monitor the in vivo growth and metastasis of PC-3M-luc tumors after cell inoculation. Nearly all PC-3M-luc tumor cell-injected animals developed prostate lesions, which were mainly localized in the femur, and mandibles. […]. Mice were monitored daily and were euthanized when moribund.
Immunohistochemistry. Bone (femurs, mandible) samples were decalcified (Protocol™, Fisher Diagnostics, Middletown, Va.). Paraffin blocks were sectioned to […] thickness and placed on positively charged glass slides. Tissues were stained with hematoxylin and eosin for general tissue morphology and identification of PC-3M cells in bone.
Nude mice were inoculated with PC-3M-Luc cells intracardiacally with 1.5×10^6 cells. […]. The PC-3M-luc cell lines were purchased from Xenogen and the mice were imaged using Xenogen's IVIS® imaging system.

CC(=O)O[C@H]1C(=O)[C@@]2(C)[C@H]([C@H](OC(=O)c3ccccc3)[C@]3(O)C[C@H](OC(=O)[C@H](O)[C@@H](NC(=O)c4ccccc4)c4ccccc4)C(C)=C1C3(C)C)[C@]1(OC(C)=O)CO[C@@H]1C[C@@H]2O [taxol, reference compound]
Treatment efficacy vs. vehicle: No difference in treatment efficacy
